Measurements: EP1561465A2, “Methods of use of fluoroquinolone compounds against bacteria” (LG Life Sciences, Ltd., priority 1999, dated 2001)
≈ marks a conversion by molar mass, not a printed value. Where “and” joins values, the source holds several entries; their conditions need not be identical. Equal entries are not always repeated. Where two headings read alike, the source gives them in different places.

Legend:
Format in all cases: cell-based
[1] = test system: Gram positive anaerobic and facultative anaerobic pathogens; experiment: organism not typed
[2] = test system: Gram negative anaerobic pathogens and facultative anaerobic pathogens; experiment: MIC by agar dilution, Brucella HK agar with 5% laked sheep blood, anaerobic reference strains
[3] = test system: Pseudomonas aeruginosa; experiment: MIC by agar dilution (NCCLS), 322 nosocomial Gram negative isolates, Athens 1998; details: n = 57 isolates
[4] = test system: Klebsiella pneumoniae; experiment: as above; details: n = 56 isolates; for MIC50 / MIC90: Klebsiella pneumoniae
[5] = test system: Proteus mirabilis; experiment: as above; details: n = 57 isolates; for MIC50 / MIC90: Proteus mirabilis
[6] = test system: Enterobacter spp.; experiment: as above; details: n = 57 isolates
[7] = test system: Acinetobacter spp.; experiment: as above; details: n = 38 strains; for MIC50 / MIC90: Acinetobacter
[8] = test system: Haemophilus influenzae; experiment: MIC by two-fold serial agar dilution, Sensitivity Disk agar-N (Kitasato isolates); details: Haemophilus influenzae (24)
[9] = test system: Moraxella catarrhalis; experiment: as above; details: Moraxella catarrhalis (22)
[10] = test system: Staphylococcus aureus; experiment: microbe, parasite or virus in culture; details: for MIC50 / MIC90: Staphylococcus aureus; for MIC90: read-out: MIC90
[11] = test system: Streptococcus pneumoniae; experiment: MIC by two-fold serial agar dilution, Sensitivity Disk agar-N (Kitasato isolates); details: Streptococcus pneumoniae; for MIC90: read-out: MIC90; for MIC: read-out: MIC Range; for MIC50: read-out: MIC50
[12] = test system: Escherichia coli; experiment: MIC by agar dilution (NCCLS), 322 nosocomial Gram negative isolates, Athens 1998; details: Escherichia coli; n = 57 isolates

Compound: C[C@@H](O)[C@H]1C(=O)N2C(C(=O)O)=C(SCCN=CN)C[C@H]12 [Imipenem]
- MIC [1]: 0.125 µg/mL and 0.25 µg/mL
- MIC ([1]; Bifidobacterium adolescentis, ATCC15703): 0.125 µg/mL (≈ 0.418 µM)
- MIC ([1]; Bifidobacterium bifidum, JCM1255): 0.125 µg/mL (≈ 0.418 µM)
- MIC ([1]; Bifidobacterium breve, ATCC15700): 1 µg/mL (≈ 3.34 µM)
- MIC ([1]; Bifidobacterium longum, ATCC15707): 0.25 µg/mL (≈ 0.835 µM)
- MIC ([1]; Bifidobacterium pseudolongum, ATCC25526): 0.25 µg/mL (≈ 0.835 µM)
- MIC ([1]; Clostridioides difficile): 4 µg/mL (≈ 13.4 µM)
- MIC ([1]; Clostridium perfringens, ATCC13124): 0.125 µg/mL (≈ 0.418 µM)
- MIC ([1]; Clostridium septicum, ATCC12464): ≤ 0.03 µg/mL
- MIC ([1]; Cutibacterium acnes, ATCC11828): 0.125 µg/mL (≈ 0.418 µM)
- MIC ([1]; Eggerthella lenta, ATCC25559): 2 µg/mL (≈ 6.68 µM)
- MIC ([1]; Finegoldia magna, ATCC29328): 0.25 µg/mL (≈ 0.835 µM)
- MIC ([1]; Gemella morbillorum, ATCC27824): ≤ 0.03 µg/mL
- MIC ([1]; Lacticaseibacillus casei, JCM1134): 0.5 µg/mL (≈ 1.67 µM)
- MIC ([1]; Lactiplantibacillus plantarum, JCM1149): 0.06 µg/mL (≈ 0.2 µM)
- MIC ([1]; Lactobacillus acidophilus, JCM1132): 0.125 µg/mL (≈ 0.418 µM)
- MIC ([1]; Levilactobacillus brevis, JCM1059): 0.06 µg/mL (≈ 0.2 µM)
- MIC ([1]; Ligilactobacillus salivarius, JCM1231): 0.5 µg/mL (≈ 1.67 µM)
- MIC ([1]; Limosilactobacillus reuteri, JCM1112): 0.06 µg/mL (≈ 0.2 µM)
- MIC ([1]; Limosilactobacillus reuteri, JCM1173): ≤ 0.03 µg/mL
- MIC ([1]; Paraclostridium sordellii, ATCC9714): ≤ 0.03 µg/mL
- MIC ([1]; Parvimonas micra): 0.125 µg/mL (≈ 0.418 µM)
- MIC ([1]; Peptoniphilus asaccharolyticus): 0.125 µg/mL (≈ 0.418 µM)
- MIC ([1]; Peptoniphilus indolicus): ≤ 0.03 µg/mL
- MIC ([1]; Peptostreptococcus anaerobius, ATCC27337): 0.06 µg/mL (≈ 0.2 µM)
- MIC ([1]; Schaalia odontolytica): 0.5 µg/mL (≈ 1.67 µM)
- MIC ([1]; Staphylococcus saccharolyticus, ATCC14953): ≤ 0.03 µg/mL
- MIC ([1]; Streptococcus constellatus, ATCC27823): 0.25 µg/mL (≈ 0.835 µM)
- MIC ([1]; Streptococcus intermedius, ATCC27335): 0.25 µg/mL (≈ 0.835 µM)
- MIC ([1]; Thomasclavelia ramosa, ATCC25582): 0.25 µg/mL (≈ 0.835 µM)
- MIC ([2]; Bacteroides eggerthii, ATCC27754): 0.125 µg/mL (≈ 0.418 µM)
- MIC ([2]; Bacteroides fragilis, ATCC25285, Bacteroides fragilis ATCC25285, read-out: MIC): 0.5 µg/mL (≈ 1.67 µM)
- MIC ([2]; Bacteroides fragilis, Bacteroides fragilis GA15562, read-out: MIC): 0.25 µg/mL (≈ 0.835 µM)
- MIC ([2]; Bacteroides fragilis, Bacteroides fragilis GA-I0558, read-out: MIC): 1 µg/mL (≈ 3.34 µM)
- MIC ([2]; Bacteroides fragilis, Bacteroides fragilis GA-I7955, read-out: MIC): 4 µg/mL (≈ 13.4 µM)
- MIC ([2]; Bacteroides fragilis, Bacteroides fragilis GAI10150, read-out: MIC): 2 µg/mL (≈ 6.68 µM)
- MIC ([2]; Bacteroides fragilis, Bacteroides fragilis GAI30079, read-out: MIC): 256 µg/mL (≈ 855 µM)
- MIC ([2]; Bacteroides fragilis, Bacteroides fragilis GAI30144, read-out: MIC): 256 µg/mL (≈ 855 µM)
- MIC ([2]; Bacteroides fragilis, NCTC10581): 0.125 µg/mL (≈ 0.418 µM)
- MIC ([2]; Bacteroides ovatus, ATCC8483, Bacteroides ovatus ATCC8483, read-out: MIC): 0.25 µg/mL (≈ 0.835 µM)
- MIC ([2]; Bacteroides thetaiotaomicron, ATCC29741, Bacteroides thetaiotaomicron ATCC29741, read-out: MIC): 0.5 µg/mL (≈ 1.67 µM)
- MIC ([2]; Bacteroides uniformis, ATCC8492, Bacteroides uniformis ATCC8492, read-out: MIC): 0.5 µg/mL (≈ 1.67 µM)
- MIC ([2]; Bilophilla wadsworthia WAL7959, read-out: MIC): 0.25 µg/mL (≈ 0.835 µM)
- MIC ([2]; Campylobacter gracilis, JCM8538, Campylobacter gracilis JCM8538, read-out: MIC): 0.25 µg/mL (≈ 0.835 µM)
- MIC ([2]; Campylobacter ureolyticus, NCTC10941, Bacteroides ureolyticus NCTC10941, read-out: MIC): 0.25 µg/mL (≈ 0.835 µM)
- MIC ([2]; Capnocytophaga ochracea, Capnocytophaga ochracea GAI5586, read-out: MIC): 0.25 µg/mL (≈ 0.835 µM)
- MIC ([2]; Desullomonas pigra DSM749, read-out: MIC): 0.06 µg/mL (≈ 0.2 µM)
- MIC ([2]; Fusobacterium necrophorum, ATCC25286): 0.125 µg/mL (≈ 0.418 µM)
- MIC ([2]; Fusobacterium nucleatum, ATCC25586, Fusobacterium nucleatum ATCC25586, read-out: MIC): 1 µg/mL (≈ 3.34 µM)
- MIC ([2]; Fusobacterium varium, ATCC8501, Fusobacterium varium ATCC8501, read-out: MIC): 4 µg/mL (≈ 13.4 µM)
- MIC ([2]; Hoylesella oralis, ATCC33269, Prevotella oralis ATCC33269, read-out: MIC): ≤ 0.03 µg/mL
- MIC ([2]; Parabacteroides distasonis, ATCC8503, Bacteroides distasonis ATCC8503, read-out: MIC): 1 µg/mL (≈ 3.34 µM)
- MIC ([2]; Phocaeicola vulgatus, ATCC8482, Bacteroides vulgatus ATCC8482, read-out: MIC): 1 µg/mL (≈ 3.34 µM)
- MIC ([2]; Porphylomonas gingivalis ATCC33277, read-out: MIC): ≤ 0.03 µg/mL
- MIC ([2]; Porphyromonas asaccharolytica, ATCC25260, Porphyromonas asaccharolytica ATCC25260, read-out: MIC): ≤ 0.03 µg/mL
- MIC ([2]; Prevotella bivia, ATCC29303, Prevotella bivia ATCC29303, read-out: MIC): 0.06 µg/mL (≈ 0.2 µM)
- MIC ([2]; Prevotella buccaeATCC33574, read-out: MIC): 0.25 µg/mL (≈ 0.835 µM)
- MIC ([2]; Prevotella corporis, Prevotella corporis GAI91000, read-out: MIC): ≤ 0.03 µg/mL
- MIC ([2]; Prevotella heparinolytica, ATCC35895): 0.125 µg/mL (≈ 0.418 µM)
- MIC ([2]; Prevotella melaninogenica, Prevotella melaninogenica GAI5490, read-out: MIC): ≤ 0.03 µg/mL
- MIC ([2]; Segatella oris, ATCC33573, Prevotella oris ATCC33573, read-out: MIC): 0.06 µg/mL (≈ 0.2 µM)
- MIC ([2]; Sutterella wadsworthensis, ATCC51579, Sutterella wadsworthensis ATCC51579, read-out: MIC): 2 µg/mL (≈ 6.68 µM)
- MIC ([2]; Veillonella dispar, ATCC17748, Veillonella dispar ATCC17748, read-out: MIC): 0.06 µg/mL (≈ 0.2 µM)
- MIC ([2]; Veillonella parvula, ATCC10790): 0.125 µg/mL (≈ 0.418 µM)
- MIC50 [3]: 2 µg/mL (≈ 6.68 µM)
- MIC90 [3]: 32 µg/mL (≈ 107 µM)
- MIC50 [4]: 0.25 µg/mL (≈ 0.835 µM)
- MIC90 [4]: 1 µg/mL (≈ 3.34 µM)
- MIC Range [4]: 0.125 to 4 µg/mL
- MIC50 [5]: 2 µg/mL (≈ 6.68 µM)
- MIC90 [5]: 4 µg/mL (≈ 13.4 µM)
- MIC Range [5]: 0.125 to 16 µg/mL
- MIC50 ([6]; Enterobacter, read-out: MIC50): 1 µg/mL (≈ 3.34 µM)
- MIC90 ([6]; Enterobacter, read-out: MIC90): 2 µg/mL (≈ 6.68 µM)
- MIC Range [6]: 0.25 to 64 µg/mL
- MIC50 [7]: 1 µg/mL (≈ 3.34 µM)
- MIC90 [7]: 4 µg/mL (≈ 13.4 µM)
- MIC Range [7]: 0.06 to 16 µg/mL

Compound: CO/N=C(\C(=O)N[C@@H]1C(=O)N2C(C(=O)O)=C(/C=C\c3scnc3C)CS[C@H]12)c1csc(N)n1 [Cefditoren, cefditoren]
- MIC50 [8]: 0.031 µg/mL (≈ 0.0612 µM)
- MIC90 [8]: 0.031 µg/mL (≈ 0.0612 µM)
- MIC Range [8]: 0.016 to 0.5 µg/mL
- MIC50 [9]: 0.5 µg/mL (≈ 0.987 µM)
- MIC90 [9]: 1 µg/mL (≈ 1.97 µM)
- MIC Range [9]: 0.063 to 1 µg/mL
- MIC Range ([10]; Methicillin-resistant (38)): 32 to 128 µg/mL
- MIC Range ([10]; Methicillin-susceptible (9)): 0.5 to 1 µg/mL
- MIC50 ([10]; Methicillin-resistant (38)): 128 µg/mL (≈ 253 µM)
- MIC90 ([10]; Methicillin-resistant (38)): 128 µg/mL (≈ 253 µM)
- MIC50 ([10]; Methicillin-susceptible (9)): 1 µg/mL (≈ 1.97 µM)
- MIC90 ([10]; Methicillin-susceptible (9)): 1 µg/mL (≈ 1.97 µM)
- MIC90 ([11]; 18 h, Ciprofloxacin-resistant (21), ciprofloxacin MIC ≥8 µg/ml): 0.25 µg/mL (≈ 0.493 µM)
- MIC ([11]; 18 h, Ciprofloxacin-resistant (21)): 0.008 to 1 µg/mL (≈ 0.0158 to 1.97 µM)
- MIC ([11]; 18 h, Ciprofloxacin-susceptible (94)): 0.008 to 2 µg/mL (≈ 0.0158 to 3.95 µM)
- MIC ([11]; 18 h, Erythromycin-resistant (37)): 0.008 to 2 µg/mL (≈ 0.0158 to 3.95 µM)
- MIC ([11]; 18 h, Minocycline-resistant (37)): 0.008 to 2 µg/mL (≈ 0.0158 to 3.95 µM)
- MIC ([11]; 18 h, Penicillin-resistant (19)): 0.25 to 2 µg/mL (≈ 0.493 to 3.95 µM)
- MIC50 ([11]; Ciprofloxacin-resistant (21)): ≤ 0.008 µg/mL
- MIC50 ([11]; Ciprofloxacin-susceptible (94)): 0.063 µg/mL (≈ 0.124 µM)
- MIC90 ([11]; Ciprofloxacin-susceptible (94)): 0.25 µg/mL (≈ 0.493 µM)
- MIC50 ([11]; Erythromycin-resistant (37)): 0.063 µg/mL (≈ 0.124 µM)
- MIC90 ([11]; Erythromycin-resistant (37)): 0.25 µg/mL (≈ 0.493 µM)
- MIC50 ([11]; Minocycline-resistant (37)): 0.063 µg/mL (≈ 0.124 µM)
- MIC90 ([11]; Minocycline-resistant (37)): 0.25 µg/mL (≈ 0.493 µM)
- MIC50 ([11]; Penicillin-resistant (19)): 0.25 µg/mL (≈ 0.493 µM)
- MIC90 ([11]; Penicillin-resistant (19)): 2 µg/mL (≈ 3.95 µM)

Compound: CC(C)(O/N=C(\C(=O)N[C@@H]1C(=O)N2C(C(=O)[O-])=C(C[n+]3ccccc3)CS[C@H]12)c1csc(N)n1)C(=O)O [Ceftazidime]
- MIC50 [3]: 2 µg/mL (≈ 3.66 µM)
- MIC90 [3]: > 64 µg/mL
- MIC50 [12]: 0.125 µg/mL (≈ 0.229 µM)
- MIC90 [12]: 0.25 µg/mL (≈ 0.457 µM)
- MIC50 [4]: 0.25 µg/mL (≈ 0.457 µM)
- MIC90 [4]: > 64 µg/mL
- MIC50 [5]: 0.125 µg/mL (≈ 0.229 µM)
- MIC90 [5]: 8 µg/mL (≈ 14.6 µM)
- MIC50 [7]: > 64 µg/mL
- MIC90 [7]: > 64 µg/mL
